Holding throughout (type): cell-based, human
The test system of experiment [1] is CD33+ myeloid leukemia cells. Description: Incubation of PBMC of CD33+ myeloid leukemia patients, viability count and flow cytometry. The note with it: purified compound, varied concentrations, 48 h. On the procedure:
Preparation of peripheral blood mononuclear cells (PBMC) from CD33+ myeloid leukemia patients ex vivo blood.
(§1) Whole blood (10 ml) was drawn from a previously diagnosed CD33+ myeloid leukemic patient and mononuclear cells were separated by Ficoll/hypaqal density gradient centrifugation.
Incubation of PBMC of myeloid leukemia patients with crude Piper betel extract. PBMC (2×10^6/ml) of myeloid leukemia patients were incubated with Piper betel extract (10.0 mg/ml) for 48 hours and then washed and counted for viability.
Incubation of PBMC of myeloid leukemia patients with fraction E in vitro. PBMC (2×10^6/ml) of myeloid leukemia patients were incubated with varied concentrations of fraction E for 48 hours. Cells were then washed and counted for viability.
(§2) Incubation of PBMC of myeloid leukemia patients with purified compound 3-O-p-coumaryl quinic acid in vitro. PBMC (2×10^6/ml) of myeloid leukemia patients were incubated with varied concentrations of purified compound for 48 h. Cells were then washed, and counted for viability.
Flow cytometry of myeloid leukemia cells. Myeloid leukemia cells before and after in vitro incubation with crude Piper betel extract, purified fraction E or purified 3-O-p-coumaryl quinic acid were marked with anti-CD33-FITC and anti-CD13-PE monoclonal antibodies. Cells were then analysed in a flow cytometer (FACS Calibur, Bection Dickinson, USA)
(In general: A flow cytometer gives signals particle by particle.)

Experiment [2] has as its system AML cells. Description: Growth inhibition of AML cells in vitro. The note with it: 48 h. On the procedure: as §1, §2
Incubation of myeloid leukemic cells with fractions having retention time 3.60 (fraction-1) and 24.00 min (fraction 9). PBMC of myeloid leukemic patients were incubated with above-mentioned fractions, alone or in combination of the two for 48 HRs. Cells were then washed and counted for viability.

The test system of experiment [3] is CML cells. Description: Growth inhibition of CML cells in vitro. The note with it: 48 h. On the procedure:
as §1, §2

For the molecule `O=C(C=Cc1ccc(O)cc1)OC1CC(O)(C(=O)O)CC(O)C1O` (stereo not drawn) [3-O-p-coumaryl quinic acid], the “Destruction of PBMC of CD33+ myeloid leukemia patients (both AML and CML)” value in experiment [1] is on record as “destroyed”. The “Percent inhibition of growth” value is 53.37% in experiment [2] (100 μg/ml), 100.00% in experiment [2] (600 μg/ml), 2.53% in experiment [3] (100 μg/ml) and 79.50% in experiment [3] (600 μg/ml). In experiment [2] (single fraction, dose 100 μg/ml), the “% Inhibition (percent inhibition of growth)” value is reported as 54.00%.

Values taken from patent US6967034B2, “Herbal-based composition for treating acute and chronic myeloid leukemia” (Council of Scientific and Industrial Research, priority 2002, dated 2005).
